Assay results: patent US20240294531A1, “COVALENT HETEROCYCLES AND USES THEREOF” (Kumquat Biosciences Inc., priority 2022, published 2024)

Tests used:
[1] = target: BTK wildtype protein (Homo sapiens (Human), UniProt Q06187); assay: BTK wildtype HTRF displacement assay; format: binding; settings: 1-hour incubation; read-out: BTK (wt) IC50
Procedure: (§1) The ability of a compound to bind BTK wildtype or BTK C481S proteins was measured using an HTRF displacement assay. The assay measures the ability of a compound to displace a tracer ligand bound to the active site of BTK wildtype or BTK C481 S proteins.
(§2) Test compounds were prepared as 10 mM stock solutions in DMSO (Fisher cat #BP231-100). Compounds to be assayed were dispensed using an Echo 650 acoustic dispenser (Beckman Coulter) on a 384 well plate in 6 doses applying four-fold dilutions from the highest concentration of 5 μM. N-terminal GST-tagged recombinant full-length BTK wildtype protein and BTK C481 S protein 2-659 were purchased from Carna Biosciences, Inc (Kobe, Japan). BTK wildtype or BTK C481S protein was separately incubated with compound in assay buffer containing kinase tracer 239 (Thermo Fisher) and Mab anti GST-Th (PerkinElmer). After a 1-hour incubation at room temperature, the HTRF signal was measured using SPARK plate reader (Tecan) using the TR fluorescence mode. The HTRF ratio is calculated for DMSO, no protein control and compound samples using the following equation: HTRF ratio=Emmision665/Emmision620×10^4. The signal for the no protein control samples was used to subtract background noise from the DMSO and compound samples. Background subtracted HTRF ratios are used to calculate the percent inhibition, where DMSO controls are set to 0 percent inhibition. The percent inhibition is plotted as a function of compound concentration and IC50 values were calculated from a four-parameter logistic fit in Prism v9.4 (GraphPad), where the bottom and top are constrained to 0 and 100, respectively.

[2] = target: BTK C481S protein (Homo sapiens (Human), UniProt Q06187, C481S); assay: BTK C481S HTRF displacement assay; format: binding; settings: 1-hour incubation
Procedure: as §1, §2
The same assay was used to measure the activity of selected compounds of the formula TBM-L-hydrogen. Using the IC50 value observed for a given reversible test compound, the KI of the test compound can be assessed using the formula KI=IC50/(1+([Tracer]/Kd)), wherein the tracer concentration in the assay [Tracer] is 50 nM and the tracer Kd for BTK C481S is 54 nM.

Chain of BTK wildtype protein (Q06187 2-659): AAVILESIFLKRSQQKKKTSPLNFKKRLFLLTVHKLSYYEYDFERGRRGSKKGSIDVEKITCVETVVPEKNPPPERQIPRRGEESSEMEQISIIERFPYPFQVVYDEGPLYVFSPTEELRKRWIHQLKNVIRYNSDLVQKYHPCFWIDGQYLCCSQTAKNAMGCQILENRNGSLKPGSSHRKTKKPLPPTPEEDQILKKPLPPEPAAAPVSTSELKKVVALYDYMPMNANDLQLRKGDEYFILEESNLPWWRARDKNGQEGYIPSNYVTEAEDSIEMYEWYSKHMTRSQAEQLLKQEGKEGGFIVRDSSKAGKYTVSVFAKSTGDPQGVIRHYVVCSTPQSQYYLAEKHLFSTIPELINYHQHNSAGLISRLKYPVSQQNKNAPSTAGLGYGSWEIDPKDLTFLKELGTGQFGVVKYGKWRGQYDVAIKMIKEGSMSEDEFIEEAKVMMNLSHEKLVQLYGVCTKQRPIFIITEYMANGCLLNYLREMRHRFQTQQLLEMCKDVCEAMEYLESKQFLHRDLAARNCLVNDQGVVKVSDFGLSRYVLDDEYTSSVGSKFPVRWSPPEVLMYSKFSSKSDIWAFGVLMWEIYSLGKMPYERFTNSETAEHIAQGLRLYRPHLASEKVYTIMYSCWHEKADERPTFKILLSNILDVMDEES
Chain of BTK C481S protein (Q06187 2-659 C481S): as the sequence (Q06187 2-659) above, with C480S counted along it

| Structure (SMILES) | IC50 [1] | IC50 [2] |
| --- | --- | --- |
| CN(C(=O)n1cncn1)C1CCC2C(CNc3c(C(N)=O)c(-c4ccc(Oc5ccccc5)cc4)nn32)C1 (stereo not drawn) [Compound 131, 7-(N-methyl-1H-1,2,4-triazole-1-carboxamido)-2-(4-phenoxyphenyl)-4,5,5a,6,7,8,9,9a-octahydropyrazolo [1,5-a]quinazoline-3-carboxamide] | > 1000 nM | > 1000 nM |
| COc1ccc(F)cc1C(=O)NCc1ccc(-c2nn(C[C@H](C3CC3)N(C)C(=O)n3cncn3)c3ncnc(N)c23)cc1 [Compound 132, (S)-N-(2-(4-amino-3-(4-((5-fluoro-2-methoxybenzamido)methyl)phenyl)-1H-pyrazolo[3,4-d]pyrimidin-1-yl)-1-cyclopropylethyl)-N-methyl-1H-1,2,4-triazole-1-carboxamide] | > 1000 nM | > 1000 nM |
| COc1ccc(F)cc1C(=O)NCc1ccc(-c2nn(-c3ccc(CN(C)C(=O)n4cncn4)cc3)c3ncnc(N)c23)cc1 [Compound 138, N-(4-(4-amino-3-(4-((5-fluoro-2-methoxybenzamido)methyl)phenyl)-1H-pyrazolo[3,4-d]pyrimidin-1-yl)benzyl)-N-methyl-1H-1,2,4-triazole-1-carboxamide] | ≤ 1000 nM | ≤ 1000 nM |
| COc1ccc(F)cc1C(=O)NCc1ccc(-c2nn(C(CC3CCC3)CN(C)C(=O)n3cncn3)c3ncnc(N)c23)cc1 (stereo not drawn) [Compound 139, N-(2-(4-amino-3-(4-((5-fluoro-2-methoxybenzamido)methyl)phenyl)-1H-pyrazolo[3,4-d]pyrimidin-1-yl)-3-cyclobutylpropyl)-N-methyl-1H-1,2,4-triazole-1-carboxamide] | > 1000 nM | > 1000 nM |
| COc1ccc(F)cc1C(=O)NCc1ccc(-c2nn(Cc3ccccc3N(C)C(=O)n3cncn3)c3ncnc(N)c23)cc1 [Compound 141, N-(2-((4-amino-3-(4-((5-fluoro-2-methoxybenzamido)methyl)phenyl)-1H-pyrazolo[3,4-d]pyrimidin-1-yl)methyl)phenyl)-N-methyl-1H-1,2,4-triazole-1-carboxamide] | ≤ 1000 nM | > 1000 nM |
| Cc1[nH]c2c(C(N)=O)cc(F)c(N3CCC4(CC3)CCN4C(=O)n3cncn3)c2c1C [Compound 142, 4-(1-(1H-1,2,4-triazole-1-carbonyl)-1,7-diazaspiro[3.5]nonan-7-yl)-5-fluoro-2,3-dimethyl-1H-indole-7-carboxamide] | ≤ 1000 nM | ≤ 1000 nM |
| COc1ccc(F)cc1C(=O)NCc1ccc(-c2nn(-c3ccccc3CN(C)C(=O)n3cncn3)c3ncnc(N)c23)cc1 [Compound 143, N-(2-(4-amino-3-(4-((5-fluoro-2-methoxybenzamido)methyl)phenyl)-1H-pyrazolo[3,4-d]pyrimidin-1-yl)benzyl)-N-methyl-1H-1,2,4-triazole-1-carboxamide] | > 1000 nM | > 1000 nM |
| CC1CC(n2nc(-c3ccc(Oc4ccccc4)cc3)c3c(N)ncnc32)CCN1C(=O)n1cncn1 (stereo not drawn) [Compound 144, (4-(4-amino-3-(4-phenoxyphenyl)-1H-pyrazolo[3,4-d]pyrimidin-1-yl)-2-methylpiperidin-1-yl)(1H-1,2,4-triazol-1-yl)methanone] | ≤ 1000 nM | ≤ 1000 nM |
| COc1ccc(F)cc1C(=O)NCc1ccc(-c2nn(CC3CCN3C(=O)n3cncn3)c(N)c2C(N)=O)cc1 (stereo not drawn) [Compound 145, 1-((1-(1H-1,2,4-triazole-1-carbonyl)azetidin-2-yl)methyl)-5-amino-3-(4-((5-fluoro-2-methoxybenzamido)methyl)phenyl)-1H-pyrazole-4-carboxamide] | ≤ 1000 nM | ≤ 1000 nM |
| COc1ccc(F)cc1C(=O)NCc1ccc(-c2nn(CCC3CCCCN3C(=O)n3cncn3)c3ncnc(N)c23)cc1 (stereo not drawn) [Compound 146] | ≤ 1000 nM | ≤ 1000 nM |
| CC1(C)CC(n2nc(-c3ccc(Oc4ccccc4)cc3)c3c(N)ncnc32)CCN1C(=O)n1cncn1 (stereo not drawn) [Compound 148, (4-(4-amino-3-(4-phenoxyphenyl)-1H-pyrazolo[3,4-d]pyrimidin-1-yl)-2,2-dimethylpiperidin-1-yl)(1H-1,2,4-triazol-1-yl)methanone] | ≤ 1000 nM | ≤ 1000 nM |
| CN(CC1CNc2c(C(N)=O)c(-c3ccc(Oc4ccccc4)cc3)nn2C1)C(=O)n1cncn1 (stereo not drawn) [Compound 149, 6-((N-methyl-1H-1,2,4-triazole-1-carboxamido)methyl)-2-(4-phenoxyphenyl)-4,5,6,7-tetrahydropyrazolo[1,5-a] pyrimidine-3-carboxamide] | > 1000 nM | > 1000 nM |
| COC[C@H](C1CCNc2c(C(N)=O)c(-c3ccc(Oc4ccccc4)cc3)nn21)N(C)C(=O)n1cncn1 (stereo partly drawn) [Compound 156, 7-((S)-2-methoxy-1-(N-methyl-1H-1,2,4-triazole-1-carboxamido)ethyl)-2-(4-phenoxyphenyl)-4,5,6,7-tetrahydropyrazolo[1,5-a] pyrimidine-3-carboxamide] | > 1000 nM | > 1000 nM |
| COc1ccc(C)cc1C(=O)NCc1ccc(-c2nn(CC3CCCCN3C(=O)n3cnnn3)c3ncnc(N)c23)cc1 (stereo not drawn) [Compound 158, N-(4-(1-((1-(1H-tetrazole-1-carbonyl)piperidin-2-yl)methyl)-4-amino-1H-pyrazolo[3,4-d]pyrimidin-3-yl)benzyl)-2-methoxy-5-methylbenzamide] | ≤ 1000 nM | > 1000 nM |
| NC(=O)c1c(-c2ccc(Oc3ccccc3)cc2)nn(C2CCCCN(C(=O)n3cncn3)C2)c1N (stereo not drawn) [Compound 159, 1-(1-(1H-1,2,4-triazole-1-carbonyl)azepan-3-yl)-5-amino-3-(4-phenoxyphenyl)-1H-pyrazole-4-carboxamide] | ≤ 1000 nM | ≤ 1000 nM |
| COc1ccc(F)cc1C(=O)NCc1ccc(-c2nn(C(CCN(C)C(=O)n3cncn3)C3CC3)c3ncnc(N)c23)cc1 (stereo not drawn) [Compound 161] | ≤ 1000 nM | > 1000 nM |
| NC(=O)c1c(-c2ccc(Oc3ccccc3)cc2)nn(C2CCCN(C(=O)n3cncn3)C2)c1N (stereo not drawn) [Compound 163, 1-(1-(1H-1,2,4-triazole-1-carbonyl)piperidin-3-yl)-5-amino-3-(4-phenoxyphenyl)-1H-pyrazole-4-carboxamide] | ≤ 1000 nM | ≤ 1000 nM |
| COc1ccc(F)cc1C(=O)NCc1ccc(-c2nn(C[C@@H]3CCCCN3C(=O)n3cncn3)c3[nH]c(=O)[nH]c(=O)c23)cc1 [Compound 164] | ≤ 1000 nM | ≤ 1000 nM |
| NC(=O)c1c(-c2ccc(Oc3ccccc3)cc2)nn(C2CCC3(C2)CN(C(=O)n2cncn2)C3)c1N (stereo not drawn) [Compound 165, 1-(2-(1H-1,2,4-triazole-1-carbonyl)-2-azaspiro[3.4]octan-6-yl)-5-amino-3-(4-phenoxyphenyl)-1H-pyrazole-4-carboxamide] | ≤ 1000 nM | ≤ 1000 nM |
| CN(CCC1CCNc2c(-c3ccc(Oc4ccccc4)cc3)c(C(N)=O)nn21)C(=O)n1cncn1 (stereo not drawn) [Compound 167, 7-(2-(N-methyl-1H-1,2,4-triazole-1-carboxamido)ethyl)-3-(4-phenoxy-phenyl)-4,5,6,7-tetrahydro-pyrazolo[1,5-a]pyrimidine-2-carboxamide] | > 1000 nM | > 1000 nM |
| Cc1[nH]c2c(C(N)=O)cc(F)c(N3CCCC4(CCN4C(=O)n4cncn4)C3)c2c1C (stereo not drawn) [Compound 171, 4-(1-(1H-1,2,4-triazole-1-carbonyl)-1,6-diazaspiro[3.5]nonan-6-yl)-5-fluoro-2,3-dimethyl-1H-indole-7-carboxamide] | ≤ 1000 nM | ≤ 1000 nM |
| COc1ccc(F)cc1C(=O)NCc1ccc(-c2nn(C(C)C3CCN(C(=O)n4cncn4)C3)c3ncnc(N)c23)cc1 (stereo not drawn) [Compound 172, N-(4-(1-(1-(1-(1H-1,2,4-triazole-1-carbonyl)pyrrolidin-3-yl)ethyl)-4-amino-1H-pyrazolo[3,4-d]pyrimidin-3-yl)benzyl)-5-fluoro-2-methoxybenzamide] | ≤ 1000 nM | ≤ 1000 nM |
| COc1ccc(F)cc1C(=O)NCc1ccc(-c2nn(C[C@H]3CCCC[C@H]3CN(C)C(=O)n3cncn3)c3ncnc(N)c23)cc1 [Compound 173, N-(((1R,2S)-2-((4-amino-3-(4-((5-fluoro-2-methoxybenzamido)methyl)phenyl)-1H-pyrazolo[3,4-d]pyrimidin-1-yl)methyl)cyclohexyl)methyl)-N-methyl-1H-1,2,4-triazole-1-carboxamide] | ≤ 1000 nM | ≤ 1000 nM |
| COc1ccc(F)cc1C(=O)NCc1ccc(-c2nn(CC3CCCCCN3C(=O)n3cncn3)c3ncnc(N)c23)cc1 (stereo not drawn) [Compound 174, N-(4-(1-((1-(1H-1,2,4-triazole-1-carbonyl)azepan-2-yl)methyl)-4-amino-1H-pyrazolo[3,4-d]pyrimidin-3-yl)benzyl)-5-fluoro-2-methoxybenzamide] | > 1000 nM | > 1000 nM |
